In PubChem BioAssay (NCI):
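The compound was tested at five concentrations on cells cultured in 96-well plates, with a 48-hour exposure period. Definition used: TGI = concentration required for complete inhibition of growth.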

Experiments:
Assay in all cases: NCI anticancer screen, dose series, 48 h
HCT-116 colon = tested on: HCT-116 colon
ACHN renal = tested on: ACHN renal
A549 NSCLC = tested on: A549 NSCLC
NCI-H522 lung = tested on: NCI-H522 lung
SK-MEL-28 melanoma = tested on: SK-MEL-28 melanoma
UACC-257 melanoma = tested on: UACC-257 melanoma
EKVX NSCLC = tested on: EKVX NSCLC
CCRF-CEM leukemia = tested on: CCRF-CEM leukemia
UO-31 renal = tested on: UO-31 renal
786-0 renal = tested on: 786-0 renal
SK-MEL-5 melanoma = tested on: SK-MEL-5 melanoma
HCT-15 colon = tested on: HCT-15 colon
KM12 colon = tested on: KM12 colon
SNB-19 CNS = tested on: SNB-19 CNS
RXF 393 renal = tested on: RXF 393 renal
HT29 colon = tested on: HT29 colon
IGROV1 ovarian = tested on: IGROV1 ovarian
DU-145 prostate = tested on: DU-145 prostate
MCF7 breast = tested on: MCF7 breast

Compound | TGI (HCT-116 colon) [µM] | TGI (ACHN renal) [µM] | TGI (A549 NSCLC) [µM] | TGI (NCI-H522 lung) [µM] | TGI (SK-MEL-28 melanoma) [µM] | TGI (UACC-257 melanoma) [µM] | TGI (EKVX NSCLC) [µM] | TGI (CCRF-CEM leukemia) [µM] | TGI (UO-31 renal) [µM] | TGI (786-0 renal) [µM] | TGI (SK-MEL-5 melanoma) [µM] | TGI (HCT-15 colon) [µM] | TGI (KM12 colon) [µM] | TGI (SNB-19 CNS) [µM] | TGI (RXF 393 renal) [µM] | TGI (HT29 colon) [µM] | TGI (IGROV1 ovarian) [µM] | TGI (DU-145 prostate) [µM] | TGI (MCF7 breast) [µM]
CCN=C(NNc1ccc([N+](=O)[O-])cc1)P(=O)(OC(C)C)OC(C)C | > 100 | > 100 | > 100 | > 100 | > 100 | > 100 | > 100 | > 100 | > 100 | > 100 | > 100 | > 100 | > 100 | > 100 |  |  |  |  | 
COc1ccc2nc3ccc(OC)cc3c(SCc3ccc([N+](=O)[O-])cc3)c2c1 | > 100 | > 100 | > 100 | > 100 | > 100 | > 100 | > 100 | > 100 | > 100 | > 100 |  | > 100 | > 100 | > 100 | > 100 | > 100 | > 100 | > 100 | 
CS/C1=C(\c2ccc(C)cc2)N(c2ccccc2)C(=O)C(=O)N(c2ccccc2)/C(c2ccc(C)cc2)=C(/SC)SS1 | > 100 | > 100 |  | > 100 | > 100 | > 100 | > 100 | > 100 | > 100 | > 100 |  | > 100 |  | > 100 |  | > 100 | > 100 | > 100 | > 100
[O-][n+]1onc2c1CCC(=N\O)/C2=N/Nc1ccccc1 | > 100 | > 100 | > 100 | > 100 | > 100 | > 100 | > 100 | > 100 | > 100 | > 100 | > 100 | > 100 | > 100 | > 100 | > 100 | > 100 | > 100 | > 100 | > 100
CC(C)CC1C(=O)NCCC(NC(=O)C(N)Cc2ccc(O)cc2)C(=O)NC(Cc2ccccc2)C(=O)NC(Cc2ccccc2)NC1=O (stereo unspecified) | > 100 | > 100 | > 100 | > 100 | > 100 | > 100 | > 100 | > 100 | > 100 | > 100 | > 100 | > 100 | > 100 | > 100 | > 100 | > 100 | > 100 | > 100 | > 100
COc1cccc(NC(=O)/C(CC(=O)CC(c2ccccc2)c2c(O)c3ccccc3oc2=O)=N\NC(C)(C)C)c1OC (stereo unspecified) | > 100 | > 100 | > 100 |  | > 100 | > 100 | > 100 | > 100 | > 100 | > 100 | > 100 | > 100 | > 100 | > 100 |  |  | > 100 |  | 
CCOC(=O)C(/C=N\C(=S)Nc1ccc(Cl)c(Cl)c1)=C(/O)c1ccccc1 | > 100 | > 100 | > 100 | 26.1 | > 100 | > 100 | > 100 | > 100 | 16.6 | > 100 | > 100 | > 100 | > 100 |  | > 100 | > 100 | > 100 | > 100 | > 100
